Patent publication US9757427B2, “Combination comprising zidovudine and polymyxin” (HELPERBY THERAPEUTICS LIMITED, priority 2013, dated 2017)

Experiments:
[1] = system: log phase Escherichia coli and Klebsiella pneumoniae; experiment: chequerboard method, MIC alone and in combination, log phase bacteria; assay type: cell-based; conditions: for MIC before combination: single agent, chequerboard
From the text: In relation to (b) above, methods for determining activity against log phase bacteria include a determination, under standard conditions (i.e. conditions known to those skilled in the art, such as those described in WO 2005014585, the disclosures of which document are hereby incorporated by reference), of Minimum Inhibitory Concentration (“MIC”) or Minimum Bactericidal Concentration (“MBC”) for a test compound. Specific examples of such methods are described below. In Vitro Activity of Zidovudine Combined Together with Colistin Against Log Phase Escherichia coli and Klebsiella pneumoniae Using Chequerboard Method

[2] = system: log phase Klebsiella; experiment: time kill curve against log phase Klebsiella; assay type: cell-based

Row | Molecule | MIC of HT0120663 in combination ([1]; combined with 2 μg/ml of colistin) | MIC before combination [1] | time kill outcome after 6 hours ([2]; HT0120663 at 4 μg/ml, after the 6 hour kill) | log kill ([2]; HT0120663 at 4 μg/ml, at 6 hours) | MIC of colistin in combination ([1]; combined with 2 μg/ml of HT0120663) | time kill outcome ([2]; Colistin at 16 μg/ml)
1 | Cc1cn([C@H]2C[C@H](N=[N+]=[N-])[C@@H](CO)O2)c(=O)[nH]c1=O [HT0120663, Zidovudine] | 1 µg/mL | 4 µg/mL | regrowth of the bacteria | about 1 log | – | –
2 | Colistin | – | 4 µg/mL | – | – | 0.25 µg/mL | inhibition up to 6 hours
